{"source": "patent US12233047B2", "about": "“Pharmaceutical combination and use thereof” (ASCENTAGE PHARMA (SUZHOU) CO., LTD., priority 2019, dated 2025)", "key": {"FLT3 (K663Q)": {"target": "T1, FLT3 (K663Q) (Homo sapiens, UniProt P36888, K663Q)", "T1 construct": "host or cells: T7 phage in E. coli (BL21-derived) or HEK-293", "T1 sequence (P36888 27-993 K663Q)": "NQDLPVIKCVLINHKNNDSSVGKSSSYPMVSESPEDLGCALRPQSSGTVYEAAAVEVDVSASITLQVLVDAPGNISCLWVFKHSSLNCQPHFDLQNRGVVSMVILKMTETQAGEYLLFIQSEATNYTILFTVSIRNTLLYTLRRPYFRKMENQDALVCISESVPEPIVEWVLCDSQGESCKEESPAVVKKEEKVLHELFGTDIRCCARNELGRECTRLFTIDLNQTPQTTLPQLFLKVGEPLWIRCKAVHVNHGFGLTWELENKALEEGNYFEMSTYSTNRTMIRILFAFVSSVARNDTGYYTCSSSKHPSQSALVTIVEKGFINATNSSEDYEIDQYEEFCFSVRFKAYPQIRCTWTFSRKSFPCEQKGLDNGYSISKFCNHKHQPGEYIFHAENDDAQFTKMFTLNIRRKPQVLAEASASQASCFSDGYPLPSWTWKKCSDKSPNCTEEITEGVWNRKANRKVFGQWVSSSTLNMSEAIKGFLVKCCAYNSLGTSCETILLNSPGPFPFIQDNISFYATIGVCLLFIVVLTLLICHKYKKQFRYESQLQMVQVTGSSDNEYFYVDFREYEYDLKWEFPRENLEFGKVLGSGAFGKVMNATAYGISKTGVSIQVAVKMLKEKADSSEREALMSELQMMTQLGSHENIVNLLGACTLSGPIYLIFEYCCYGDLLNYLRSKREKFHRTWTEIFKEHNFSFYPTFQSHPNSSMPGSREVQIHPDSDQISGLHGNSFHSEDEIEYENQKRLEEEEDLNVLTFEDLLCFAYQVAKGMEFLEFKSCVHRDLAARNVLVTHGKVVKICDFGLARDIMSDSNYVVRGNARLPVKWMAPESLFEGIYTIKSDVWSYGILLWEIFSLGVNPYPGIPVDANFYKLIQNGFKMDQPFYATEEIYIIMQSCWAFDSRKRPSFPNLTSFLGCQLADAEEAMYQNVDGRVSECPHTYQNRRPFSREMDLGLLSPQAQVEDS", "assay": "KINOMEscan kinase binding assay, FLT3 (K663Q)", "protocol": "The kinase assay was conducted using KINOMEscan™.\nKinase-tagged T7 phage strains were grown in parallel in 24-well blocks in an E. coli host derived from the BL21 strain. E. coli were grown to log-phase and infected with T7 phage from a frozen stock (multiplicity of infection=0.4) and incubated with shaking at 32° C. until lysis (90-150 minutes). The lysates were centrifuged (6,000×g) and filtered (0.2 μm) to remove cell debris. The remaining kinases were produced in HEK-293 cells and subsequently tagged with DNA for qPCR detection. Streptavidin-coated magnetic beads were treated with biotinylated small molecule ligands for 30 minutes at room temperature to generate affinity resins for kinase assays. The liganded beads were blocked with excess biotin and washed with blocking buffer (SeaBlock (Pierce), 1% BSA, 0.05% Tween 20, 1 mM DTT) to remove unbound ligand and to reduce non-specific phage binding. Binding reactions were assembled by combining kinases, liganded affinity beads, and test compound (Compound 23) in 1× binding buffer (20% SeaBlock, 0.17×PBS, 0.05% Tween 20, 6 mM DTT). Test compound were prepared as 40× stocks in 100% DMSO and directly diluted into the assay. All reactions were performed in polypropylene 384-well plates in a final volume of 0.04 ml. […] The kinase concentration in the eluates was measured by qPCR. […]"}, "[1]": {"test_system": "Human AML cell line MOLM-13 (FLT3-ITD positive and wild type TP53 gene)", "assay": "Human MOLM-13 AML systemic mouse xenograft model, survival", "assay_type": "in vivo", "details": "MOLM-13 systemic model, Compound 23 10 mg/kg, Compound C 20 mg/kg, p.o. q2d × 21 d", "protocol": "The formulation of Compound C was prepared as homogenous suspension in 0.2% HPMC using a mortar. The drug suspension was prepared every three days or once a week and placed at 4° C. when not in use. Before use, the drug suspension was placed at room temperature and shaken to mix well. The formulation of Compound C was administered to mice via p.o. in a volume of 10 mL/kg.\nThe formulation of Compound 23 was prepared in 0.2% HPMC in a mortar to generate homogenous suspension. The drug suspension was prepared once every other day and placed at 4° C. when not in use. Before use, the drug suspension was placed at room temperature and shaken well. The formulation of Compound 23 was administered to mice via p.o. in a volume of 10 mL/kg.\nMOLM-13 cell lines (Human AML cell line MOLM-13 (FLT3-ITD positive and wild type TP53 gene)) were maintained in RPMI-1640 (Cat. C11875500BT, GIBCO) with 10% fetal bovine serum (Cat. 10099-141, GIBCO), 1% L-glutamine, 100 U/mL penicillin G and 100 μg/mL streptomycin (Cat. GNM15140, Hangzhou Geno Biomedical Technology Co., Ltd). Cells were incubated at 37° C. in a humidified incubator with 5% CO2.\nSix to eight weeks old, female, NOD SCID and BALB/c nude mice were used. Animals were obtained from Vital River Laboratories (VRL, Beijing, China, license number SCXK(J) 2012-0001 and SCXK(J) 2016-0006). The body weights were 17-24 g.\nMOLM-13 systemic tumor model were established by injecting tumor cells into the tail vein (10×10^6 cells/mouse) under the sterile condition. To establish the MOLM-13 systemic model, all animals were intraperitoneally injected (i.p.) with cyclophosphamide (150 mg/kg) for two consecutive days before the inoculation of MOLM-13 cells. On the third day after cell inoculation, animals were randomized into 10 mice per group and treatment was initiated (day 1) according to Table 2.\nThe animals were euthanized when the experimental animals had symptoms such as weight loss and weight loss greater than 20%, limb paralysis, tumor metastasis to the eye causing ocular protrusion, tumor metastasis to the abdominal cavity causing abdominal enlargement. These severe health issues were considered as the same as animal death caused by tumor growth and the affected animals were sacrificed immediately.\nThe date of the last mouse died (the last measurement) was used for analysis of median overall survival and the generation of Kaplan-Meier plots. Survival curves of different treatment groups were compared using log-rank test with Bonferroni's multiple test. All data were analyzed in SPSS version 18.0 (IBM, Armonk, NY, U.S.A.). Prism version 6 (GraphPad Software Inc., San Diego, CA, U.S.A.) was used for graphic presentation."}}, "data": [{"smiles": "Cc1ccc(C(=O)Nc2ccc(CN3CCN(C)CC3)c(C(F)(F)F)c2)cc1C#Cc1cnc2[nH]ncc2c1", "note": "[Compound 23, 3-(2-(1H-pyrazolo[3,4-b]pyridin-5-yl)ethynyl)-4-methyl-N-(4-((4-methylpiperazin-1-yl)methyl)-3-(trifluoromethyl)phenyl)benzamide]", "values": [{"measurement": "% Ctrl@10 nM", "setting": "FLT3 (K663Q); 10 nM", "value": 5, "unit": "% Ctrl"}, {"measurement": "% Ctrl@100 nM", "setting": "FLT3 (K663Q); 100 nM", "value": 0.6, "unit": "% Ctrl"}, {"measurement": "Median survival time of mice", "setting": "[1]; vehicle 19 days", "value": 29, "unit": "days"}, {"measurement": "Prolonged survival time of mice", "setting": "[1]; versus vehicle", "value": 10, "unit": "days"}]}]}
